According to US20260285875A1, “INHIBITORS OF PARG” (858 Therapeutics, Inc., priority 2023, published 2026):

Molecular target: T1, cellular PARG (Homo sapiens, UniProt Q86W56)
T1 construct: endogenous in cells; host or cells: HeLa
Assay: Nuclear PAR accumulation assay (immunofluorescence high-content imaging, MMS-treated HeLa cells)
Type: cell-based
Settings: 1 hour compound then MMS 50 μg/mL for an additional hour
How it was run: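 HeLa cells pretreated with compound for 1 h at 37° C, then given 50 μg/mL MMS for another hour. After methanol fixation, PAR was immunostained with DAPI nuclear counterstain; per-nucleus intensity and percent PAR-positive cells were imaged at 20× (≥1,000 cells/well). IC50 from four-parameter logistic fit.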

T1 sequence (Q86W56 whole entry): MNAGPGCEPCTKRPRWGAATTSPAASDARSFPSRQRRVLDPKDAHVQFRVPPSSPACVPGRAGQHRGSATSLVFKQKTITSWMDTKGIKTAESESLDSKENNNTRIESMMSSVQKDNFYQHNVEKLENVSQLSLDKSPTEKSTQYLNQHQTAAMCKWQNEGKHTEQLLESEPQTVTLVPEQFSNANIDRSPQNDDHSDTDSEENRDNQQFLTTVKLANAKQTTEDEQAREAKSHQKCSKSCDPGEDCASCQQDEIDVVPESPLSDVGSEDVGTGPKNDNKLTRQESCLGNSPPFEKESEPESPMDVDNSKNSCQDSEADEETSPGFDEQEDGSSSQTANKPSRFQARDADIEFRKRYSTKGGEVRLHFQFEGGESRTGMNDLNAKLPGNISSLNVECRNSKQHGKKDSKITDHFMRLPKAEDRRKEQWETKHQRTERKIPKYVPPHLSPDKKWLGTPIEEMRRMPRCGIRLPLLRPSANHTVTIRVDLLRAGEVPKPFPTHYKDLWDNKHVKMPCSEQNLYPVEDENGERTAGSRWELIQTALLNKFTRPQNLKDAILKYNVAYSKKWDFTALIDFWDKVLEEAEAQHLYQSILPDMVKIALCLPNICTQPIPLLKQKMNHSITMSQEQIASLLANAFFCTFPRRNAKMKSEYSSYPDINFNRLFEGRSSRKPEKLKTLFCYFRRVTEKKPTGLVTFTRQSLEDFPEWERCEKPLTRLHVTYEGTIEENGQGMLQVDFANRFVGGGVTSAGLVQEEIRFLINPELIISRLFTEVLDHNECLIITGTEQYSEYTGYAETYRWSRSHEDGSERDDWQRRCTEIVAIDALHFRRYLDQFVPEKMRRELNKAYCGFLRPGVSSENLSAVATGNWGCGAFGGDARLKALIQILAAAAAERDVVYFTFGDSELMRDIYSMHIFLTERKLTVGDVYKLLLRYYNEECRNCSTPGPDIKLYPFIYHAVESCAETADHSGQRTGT

Molecule	IC50 [nM]
Cn1cc(CN2C(=O)c3cc(S(=O)(=O)NC4(C)CC4)cc(-c4ccc(F)cc4)c3N3CC(C)(C)N=C23)cn1 [Example 17, 9-(4-fluorophenyl)-2,2-dimethyl-4-((1-methyl-1H-pyrazol-4-yl)methyl)-N-(1-methylcyclopropyl)-5-oxo-1,2,4,5-tetrahydroimidazo[1,2-a]quinazoline-7-sulfonamide]	< 100
C=Cc1ccc(CN2C(=O)c3cc(S(=O)(=O)NC4(C)CC4)ccc3N3C2=NC[C@H]3C)cn1 [Example 254, (R)-1-methyl-N-(1-methylcyclopropyl)-5-oxo-4-((6-vinylpyridin-3-yl)methyl)-1,2,4,5-tetrahydroimidazo[1,2-a]quinazoline-7-sulfonamide]	100 to 1000
CN(C)CC#C[C@@H]1CN=C2N(Cc3cnn(C)c3)C(=O)c3cc(S(=O)(=O)NC4(C)CC4)ccc3N21 [Example 31, (R)-1-(3-(dimethylamino)prop-1-yn-1-yl)-4-((1-methyl-1H-pyrazol-4-yl)methyl)-N-(1-methylcyclopropyl)-5-oxo-1,2,4,5-tetrahydroimidazo[1,2-a]quinazoline-7-sulfonamide]	< 100
[2H]C([2H])(c1cnn(C)c1)N1C(=O)c2cc(S(=O)(=O)NC3(C)CC3)ccc2N2C1=NC[C@H]2C#Cc1cccc(N)n1 [Example 104, (R)-1-((6-aminopyridin-2-yl)ethynyl)-4-((1-methyl-1H-pyrazol-4-yl)methyl-d2)-N-(1-methylcyclopropyl)-5-oxo-1,2,4,5-tetrahydroimidazo[1,2-a]quinazoline-7-sulfonamide]	< 100
CN1C(=O)c2cc(S(=O)(=O)NC3(C)CC3)ccc2N2C1=NCC2C#Cc1ccc2nnn(C)c2c1 (stereo not drawn) [Example 172, 4-methyl-1-((1-methyl-1H-benzo[d][1,2,3]triazol-6-yl)ethynyl)-N-(1-methylcyclopropyl)-5-oxo-1,2,4,5-tetrahydroimidazo[1,2-a]quinazoline-7-sulfonamide]	< 100
Cc1cc(F)ccc1-c1cc(S(=O)(=O)NC2(C)CC2)cc2c1N1CCN=C1N(Cc1cnn(C)c1)C2=O [Example 20, 9-(4-fluoro-2-methylphenyl)-4-((1-methyl-1H-pyrazol-4-yl)methyl)-N-(1-methylcyclopropyl)-5-oxo-1,2,4,5-tetrahydroimidazo[1,2-a]quinazoline-7-sulfonamide]	< 100
CN1C(=O)c2cc(S(=O)(=O)NC3(C)CC3)ccc2N2C1=NC[C@H]2C#Cc1cnc2cccnn12 [Example 149, (R)-1-(imidazo[1,2-b]pyridazin-3-ylethynyl)-4-methyl-N-(1-methylcyclopropyl)-5-oxo-1,2,4,5-tetrahydroimidazo[1,2-a]quinazoline-7-sulfonamide]	< 100
CCc1noc(C)c1CN1C(=O)c2cc(S(=O)(=O)NC3(C)CC3)ccc2N2C1=NC[C@H]2C [Example 5, (R)-4-((3-ethyl-5-methylisoxazol-4-yl)methyl)-1-methyl-N-(1-methylcyclopropyl)-5-oxo-1,2,4,5-tetrahydroimidazo[1,2-a]quinazoline-7-sulfonamide]	< 100
COc1ccc(C#CC2CN=C3N(C)C(=O)c4cc(S(=O)(=O)NC5(C)CC5)ccc4N32)cn1 (stereo not drawn) [Example 204, 1-((6-methoxypyridin-3-yl)ethynyl)-4-methyl-N-(1-methylcyclopropyl)-5-oxo-1,2,4,5-tetrahydroimidazo[1,2-a]quinazoline-7-sulfonamide]	< 100
CN1C(=O)c2cc(S(=O)(=O)NC3(C)CC3)ccc2N2C1=NCC2C#Cc1cnn2c1OCC1(COC1)C2 (stereo not drawn) [Example 178, 1-((5′H,7′H-spiro[oxetane-3,6′-pyrazolo[5,1-b][1,3]oxazin]-3′-yl)ethynyl)-4-methyl-N-(1-methylcyclopropyl)-5-oxo-1,2,4,5-tetrahydroimidazo[1,2-a]quinazoline-7-sulfonamide]	100 to 1000
CN1C(=O)c2cc(S(=O)(=O)NC3(C)CC3)ccc2N2C1=NCC2C#Cc1cnc2ccccn12 (stereo not drawn) [Example 167, 1-(imidazo[1,2-a]pyridin-3-ylethynyl)-4-methyl-N-(1-methylcyclopropyl)-5-oxo-1,2,4,5-tetrahydroimidazo[1,2-a]quinazoline-7-sulfonamide]	< 100

Test system: sensitive cells
Assay: not given
Settings: S-phase dependent; cited from earlier work

Molecule	accumulation of nuclear RPA protein and induction of pan-nuclear QH2AX expression
PDD00017273	S-phase dependent accumulation of nuclear RPA protein and induction of pan-nuclear QH2AX expression
